This is an account of results in ChEMBL document CHEMBL3797072, “Discovery of Potent, Selective, and Orally Bioavailable Small-Molecule Modulators of the Mediator Complex-Associated Kinases CDK8 and CDK19” (J Med Chem, 2016).

Structures are written as SMILES. ≈ marks a conversion by molar mass, not a printed value. A value given as a limit tells only on which side of the number the result lay.

Series [1] in a line: in vitro. The conditions noted are these: mouse, microsomes.
Series [2] in a line: in vivo. The following applies: mouse, plasma.
Series [3] in a line: in vivo. The conditions noted are these: mouse, plasma. This is another data set of the same source.
A short description of series [4]: physchem.
Series [5] in a line: in vivo. The conditions noted are these: mouse, faeces.
Series [6] in a line: in vivo. The conditions noted are these: NMRI, mouse.
Series [7] in a line: in vitro. The following applies: rat, microsomes.
Series [8] can be described thus: in vivo. The conditions noted are these: mouse, faeces. The source holds these as a separate data set.
Series [9] is described as follows: in vivo. The conditions noted are these: Beagle, dog.
Series [10] is described as follows: in vitro. The conditions noted are these: human, microsomes.
Series [11] in a line: in vivo. The conditions noted are these: Wistar, rat.
Series [12] in a line: physchem. This is another data set of the same source.

Regarding `Cn1cc(-c2ccc(-c3cncc(Cl)c3N3CCC4(CCNC4=O)CC3)cc2)cn1`, the microsomal CLint in [1] was 141 µL/min/mg; in [7], 54 µL/min/mg; in series [10], 84 µL/min/mg. Also, the figures for the clearance in [2] and in series [3] were 38.3 mL/min/kg and 39 mL/min/kg, respectively. The solubility (thermodynamic) in series [4] was 6 µg/mL (≈ 14.2 µM). Further, the figures for the dose excreted in series [5] and in [8] were 9.1% and less than 1%, respectively. For the same molecule, the values for the half-life in series [6] and in [9] were 33 min and 42 min, respectively.
In series [4], `CN1c2ccc(-c3cnc(N)c(F)c3N3CCC4(CCNC4=O)CC3)cc2CS1(=O)=O` had a thermodynamic solubility of 29 µg/mL (≈ 65.1 µM).
On to `Cn1cc(-c2ccc(-c3cnc(N)c(Cl)c3N3CCC4(CC3)CNC(=O)O4)cc2)cn1`, for which the clearance is 47.3 mL/min/kg in series [2] and 43.2 mL/min/kg in series [3]. Further, the figures for the dose excreted in series [5] and in series [8] were 17% and less than 1%, respectively.
For `Cn1cc(-c2ccc(-c3cnc(N)c(Cl)c3N3CCC4(CCNC4=O)CC3)cc2)cn1`, the solubility (thermodynamic) in [4] turned out to be 2 µg/mL (≈ 4.58 µM).
In turn, `Cn1ncc2cc(-c3cnc(N)c(Cl)c3N3CCC4(CCNC4=O)CC3)ccc21` registered a thermodynamic solubility in series [4] of 40 µg/mL (≈ 97.3 µM). The half-life is 46.8 min in series [6], 59.4 min in series [9] and 66 min in series [11].
On to `CC(C)(O)Cn1cc(-c2ccc(-c3cnc(N)c(Cl)c3N3CCC4(CCNC4=O)CC3)cc2)cn1`, for which the solubility (thermodynamic) in series [4] was less than 1 µg/mL.
On the same count and under the same terms, in the case of `Cn1cc(-c2ccc(-c3cnc(N)c(C(F)(F)F)c3N3CCC4(CC3)CNC(=O)O4)cc2)cn1` it was 1 µg/mL (≈ 2.12 µM); in that of `Cn1cc(-c2ccc(-c3cncc(Cl)c3N3CCC4(CC3)NCNC4=O)cc2)cn1`, 47 µg/mL (≈ 111 µM); in that of `COCCN1CCCC12CCN(c1c(Cl)cncc1-c1ccc3c(c1)CS(=O)(=O)N3C)CC2`, 248 µg/mL (≈ 505 µM).
For the molecule `CN1c2ccc(-c3cnc(N)c(Cl)c3N3CCC4(CC3)CNC(=O)O4)cc2CS1(=O)=O`, the clearance in series [2] was 47.5 mL/min/kg; in [3] it was 68 mL/min/kg. Also, the dose excreted in [5] was 20%; in series [8], less than 1%.
In series [4], `Cn1ncc2cc(-c3cnc(N)c(Cl)c3N3CCC4(CC3)CNC(=O)O4)ccc21` returned a thermodynamic solubility of 3 µg/mL (≈ 7.27 µM).
`CN1c2ccc(-c3cncc(Cl)c3N3CCC4(CC3)CNC(=O)O4)cc2CS1(=O)=O`: the values for the clearance in series [2] and in [3] were 66.7 mL/min/kg and 81.5 mL/min/kg, respectively. This molecule came in with a solubility (thermodynamic) in [4] of 17 µg/mL (≈ 37.9 µM). Also, the results for the dose excreted in series [5] and in series [8] were 18% and less than 1%, respectively.
Consider `Cn1cc(-c2ccc(-c3cncc(Cl)c3N3CCC4(CC3)NC(=O)CNC4=O)cc2)cn1`, for which the clearance was 37 mL/min/kg in series [2] and 73.8 mL/min/kg in series [3]. Further, the results for the dose excreted in series [5] and in series [8] were 67% and 24%, respectively.
For `Cn1cc(-c2ccc(-c3cncc(Cl)c3N3CCC4(CC3)CNC(=O)O4)cc2)cn1`, the thermodynamic solubility in series [4] came to 3 µg/mL (≈ 7.08 µM).
With `CC(C)n1ncc2cc(-c3cnc(N)c(Cl)c3N3CCC4(CCNC4=O)CC3)ccc21`, the microsomal CLint worked out at 202 µL/min/mg in series [1], 139 µL/min/mg in series [7] and 202 µL/min/mg in series [10]. Besides, the solubility (kinetic) in series [12] stood at 126 µM (≈ 55.3 µg/mL).

By microsomal CLint is commonly meant the capacity of the preparation to metabolise the compound, expressed as a volume cleared per time. Low values mean slow turnover, high ones rapid turnover. For orientation: clearance means the rate of elimination divided by the concentration. What is called thermodynamic solubility is solubility found after equilibrating the solid with the medium. What is called half-life is the time needed for the level to fall by half in the phase considered. A higher half-life goes with slow decline. Broadly, the kinetic solubility is the concentration staying in solution when a stock, usually in DMSO, is diluted into the medium.
